According to ChEMBL document CHEMBL1201862, “PubChem BioAssay data set” (2004):
Calls of active or inactive are those of the source.

Assays:
[1] = biological target: DNA damage-inducible transcript 3 protein (Mus musculus, UniProt P35639); format: functional, Cricetulus griseus
[2] = biological target: T1, Microphthalmia-associated transcription factor (Homo sapiens, UniProt O75030); test: reducers of TRPM1 reporter luminescence, concentration series – cell-based, SK-MEL-5, cherry-picked, set 3, MITF inhibitor project, dose response (AID 493073); format: functional;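 further: SK-MEL-5 melanoma cells with luciferase driven by the MITF target TRPM1 promoter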
T1 sequence (O75030 whole entry): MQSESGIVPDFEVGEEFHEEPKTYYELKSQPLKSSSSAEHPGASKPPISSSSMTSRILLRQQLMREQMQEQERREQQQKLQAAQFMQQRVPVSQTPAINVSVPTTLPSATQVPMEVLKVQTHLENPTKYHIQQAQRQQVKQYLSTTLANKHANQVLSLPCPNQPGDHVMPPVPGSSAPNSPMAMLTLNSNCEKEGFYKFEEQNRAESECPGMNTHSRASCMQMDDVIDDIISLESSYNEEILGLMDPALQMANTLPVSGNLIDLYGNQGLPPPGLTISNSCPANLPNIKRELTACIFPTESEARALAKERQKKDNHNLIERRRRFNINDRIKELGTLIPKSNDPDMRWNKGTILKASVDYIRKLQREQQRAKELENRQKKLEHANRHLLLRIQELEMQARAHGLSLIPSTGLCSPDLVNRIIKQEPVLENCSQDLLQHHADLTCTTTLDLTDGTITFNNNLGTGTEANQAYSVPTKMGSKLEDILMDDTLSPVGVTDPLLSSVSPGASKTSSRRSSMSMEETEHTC

CHO = CHO cell viability loss, potency – luminescence, cytotoxicity control for TLR9-MyD88 binding inhibitor project, dose response (AID 588339); format: functional, cell-based, hamster; conditions: Cricetulus griseus;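 further: CHO cells stably coexpressing TLR9 and MyD88 fusions from primary screen; compound exposure lasted 48 hours before viability readout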
Beta Lactamase [3] = biological target: T2, Beta Lactamase (Pseudomonas aeruginosa, UniProt Q932Y6); test: BLA reporter interference, concentration series – BLA reporter cells, FRET fluorescence, artefact control for TLR9-MyD88 binding inhibitor project, dose response (AID 588341); format: cell-based;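 further: cell based assay in CHO-K1 cells stably expressing beta-lactamase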
[4] = reduction of Shn3 3'UTR-driven luciferase in osteoblasts – cell-based, Clone20 osteoblasts, firefly luciferase, cherry-picked, dose response (AID 624132); format: functional;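 further: firefly luciferase luminescence from reporter carrying the Shn3 3'UTR in osteoblasts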
[5] = loss of viability in HepG2 cells – cell-based, CellTiter-Glo, cherry-picked, cytotoxicity control for Shn3 inhibitor project, dose response (AID 624134); format: functional
[6] = non-specific 3'UTR reporter inhibition in Clone20-Shn3RL – cell-based, Renilla luciferase, cherry-picked, counter-screen for Shn3 inhibitor project, dose response (AID 624133); format: functional
[7] = Fluorescence-based cell-based high throughput dose response assay for inhibitors of the interaction of nucleotide-binding oligomerization domain containing 2 (NOD2) and the receptor-interacting serine-threonine kinase 2 (RIPK2).; format: functional; conditions: Homo sapiens
Beta Lactamase [8] = biological target: T2, Beta Lactamase; test: BLA reporter interference, concentration series – BLA reporter cells, FRET fluorescence, artefact control for NOD2-RIPK2 interaction inhibitor project, dose response (AID 651552); format: functional, cell-based
Galanin receptor type 3 = biological target: T3, Galanin receptor type 3 (Homo sapiens, UniProt O60755); test: Fluorescence-based cell-based primary high throughput dose response assay to identify antagonists of the Galanin Receptor 3 (GalR3).; format: functional
T3 sequence (O60755 whole entry): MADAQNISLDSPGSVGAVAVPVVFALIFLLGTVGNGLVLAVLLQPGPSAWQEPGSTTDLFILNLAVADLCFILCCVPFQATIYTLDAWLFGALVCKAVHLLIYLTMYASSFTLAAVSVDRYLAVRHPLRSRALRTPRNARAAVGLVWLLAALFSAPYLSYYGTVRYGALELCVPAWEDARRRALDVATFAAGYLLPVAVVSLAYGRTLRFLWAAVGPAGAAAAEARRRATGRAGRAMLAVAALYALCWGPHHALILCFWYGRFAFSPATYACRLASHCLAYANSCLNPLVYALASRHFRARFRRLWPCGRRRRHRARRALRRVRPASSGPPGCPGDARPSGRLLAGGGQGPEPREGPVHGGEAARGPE

cells = format: functional, cell-based; conditions: HEK-CNG
Galanin receptor type 2 = Galanin receptor type 2 (Homo sapiens, UniProt O43603); test: Dose Response cell-based high-throughput screening assay to identify antagonists of galanin receptor 2 (GALR2). [Related pubchem assays: 828, 866 ]; format: functional
Ion channel NompC = Ion channel NompC (Danio rerio, UniProt Q7T1G6); test: Dose response cell-based high-throughput screening assay for agonists of the transient receptor potential channel N1 (TRPN1). [Related pubchem assays (depositor defined):AID1424, AID1448]; format: functional
Mucolipin-3 = biological target: T4, Mucolipin-3 (Homo sapiens, UniProt Q8TDD5); test: Fluorescence counterscreen assay for […] agonists: dose response cell-based high-throughput screening assay to identify agonists of the transient receptor potential channel ML3 (TRPML3). [Related pubchem assays: 1424, 1448 ]; format: functional
T4 sequence (Q8TDD5 whole entry): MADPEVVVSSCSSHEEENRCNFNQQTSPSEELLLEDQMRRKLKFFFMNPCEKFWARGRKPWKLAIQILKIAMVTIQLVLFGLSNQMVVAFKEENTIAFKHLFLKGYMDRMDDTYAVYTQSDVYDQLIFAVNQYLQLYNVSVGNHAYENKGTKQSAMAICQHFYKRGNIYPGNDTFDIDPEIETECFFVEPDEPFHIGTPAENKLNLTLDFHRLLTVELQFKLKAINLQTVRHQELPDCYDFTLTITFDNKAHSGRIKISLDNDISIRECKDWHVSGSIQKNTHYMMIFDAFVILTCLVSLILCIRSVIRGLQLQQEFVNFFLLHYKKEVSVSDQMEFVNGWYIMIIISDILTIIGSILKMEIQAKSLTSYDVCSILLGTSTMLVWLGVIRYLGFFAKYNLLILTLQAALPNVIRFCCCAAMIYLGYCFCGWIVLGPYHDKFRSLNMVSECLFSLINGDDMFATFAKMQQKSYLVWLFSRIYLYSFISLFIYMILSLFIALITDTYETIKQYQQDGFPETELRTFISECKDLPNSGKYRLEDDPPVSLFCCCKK

INS1 = test: INS-1E survival protection against cytokine death – cell-based, luminescence, retest, dose response (AID 449756); format: functional; conditions: Rattus norvegicus;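 further: cell death triggered by IL-1 beta plus TNF-alpha plus IFN-gamma mixture; protective hits raise ATP signal compared with cytokine alone wells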
HEK293 [9] = test: inhibition of NOD1-driven NF-kB reporter – cell-based, luminescence, uHTS, primary screen (AID 1578); format: functional; conditions: Homo sapiens
HEK293 [10] = test: cells; format: functional, cell-based; conditions: Homo sapiens
[11] = biological target: Transitional endoplasmic reticulum ATPase (Homo sapiens, UniProt P55072, C522A); test: C522A mutant p97 ATPase inhibitors, dose response, counter-screen for p97 inhibitor project, biochemical, luminescence (AID 1544)
HEK293 [12] = test: cells; format: functional, cell-based; conditions: Homo sapiens; remark: listed apart in the source
[13] = biological target: T5, Nucleotide-binding oligomerization domain-containing protein 2 (Homo sapiens, UniProt Q9HC29); test: inhibition of NOD2-driven NF-kB reporter – cell-based, luminescence, uHTS, HEK293 (AID 1566); format: functional
HEK293 [14] = test: NOD2 signaling inhibitors in MDP-stimulated cells, cell-based, uHTS, luminescence (AID 2001); format: functional; conditions: Homo sapiens
HEK293 [15] = test: cells; format: functional, cell-based; conditions: Homo sapiens; remark: listed apart in the source
[16] = biological target: Transitional endoplasmic reticulum ATPase (Homo sapiens, UniProt P55072); test: p97 ATPase inhibitors, dose response, biochemical (AID 1534)
[17] = biological target: T5, Nucleotide-binding oligomerization domain-containing protein 2; test: inhibition of NOD2 signaling – set 2, SAR follow-up (AID 2475); format: functional
Tumor necrosis factor [18] = biological target: T6, Tumor necrosis factor (Homo sapiens, UniProt P01375); test: analog potency on TNFa NF-kB signaling – cell-based, revised, SAR follow-up (AID 2337); format: functional
HEK293 [19] = test: SAR analysis of compounds that are cytotoxic to HEK293 - Set 2. [Related pubchem assays (depositor defined):AID1575, AID1578, AID1849, AID2001, AID2333, AID2334, AID2335, AID2337, AID2800]; format: functional, cell-based; conditions: Homo sapiens
[20] = biological target: T7, Nucleotide-binding oligomerization domain-containing protein 1 (Homo sapiens, UniProt Q9Y239); test: blockers of NOD1 pathway activity – revised, SAR follow-up (AID 2333); format: functional
T7 sequence (Q9Y239 whole entry): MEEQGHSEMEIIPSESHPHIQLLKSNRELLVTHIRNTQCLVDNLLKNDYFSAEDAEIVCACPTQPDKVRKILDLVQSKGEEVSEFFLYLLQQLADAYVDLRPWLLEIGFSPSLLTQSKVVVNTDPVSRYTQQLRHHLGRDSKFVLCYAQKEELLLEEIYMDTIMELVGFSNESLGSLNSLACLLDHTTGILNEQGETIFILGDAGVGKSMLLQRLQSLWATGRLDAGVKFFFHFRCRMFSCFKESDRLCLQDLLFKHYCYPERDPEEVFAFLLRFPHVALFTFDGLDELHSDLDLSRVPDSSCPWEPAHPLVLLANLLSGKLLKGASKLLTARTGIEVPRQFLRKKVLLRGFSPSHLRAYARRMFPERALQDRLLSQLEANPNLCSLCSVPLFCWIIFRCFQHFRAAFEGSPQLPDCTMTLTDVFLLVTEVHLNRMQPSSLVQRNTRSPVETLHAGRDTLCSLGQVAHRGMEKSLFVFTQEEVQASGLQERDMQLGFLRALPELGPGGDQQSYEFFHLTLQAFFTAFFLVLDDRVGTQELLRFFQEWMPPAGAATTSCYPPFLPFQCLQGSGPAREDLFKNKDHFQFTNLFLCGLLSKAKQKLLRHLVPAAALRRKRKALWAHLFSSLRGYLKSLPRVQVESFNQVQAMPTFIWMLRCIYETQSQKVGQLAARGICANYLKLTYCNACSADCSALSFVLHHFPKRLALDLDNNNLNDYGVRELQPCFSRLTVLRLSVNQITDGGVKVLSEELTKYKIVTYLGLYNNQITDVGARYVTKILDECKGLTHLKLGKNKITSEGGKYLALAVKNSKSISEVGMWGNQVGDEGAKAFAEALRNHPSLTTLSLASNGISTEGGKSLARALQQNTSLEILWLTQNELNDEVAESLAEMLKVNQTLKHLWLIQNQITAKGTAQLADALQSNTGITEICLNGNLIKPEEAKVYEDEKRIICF

[21] = biological target: T7, Nucleotide-binding oligomerization domain-containing protein 1; test: SAR analysis of compounds that inhibit NOD1 - Set 2. [Related pubchem assays (depositor defined):AID1566, AID1575, AID1578, AID1849, AID1852, AID2333, AID2335, AID2798]; format: functional
Tumor necrosis factor [22] = biological target: T6, Tumor necrosis factor; test: analog potency on TNFa NF-kB signaling – cell-based, set 2, SAR follow-up (AID 2483); format: functional
[23] = biological target: T5, Nucleotide-binding oligomerization domain-containing protein 2; test: PubChem AID 2334; format: functional
HEK293 [24] = test: cells; conditions: Homo sapiens

T5 sequence (Q9HC29 whole entry, the tested form may be a part): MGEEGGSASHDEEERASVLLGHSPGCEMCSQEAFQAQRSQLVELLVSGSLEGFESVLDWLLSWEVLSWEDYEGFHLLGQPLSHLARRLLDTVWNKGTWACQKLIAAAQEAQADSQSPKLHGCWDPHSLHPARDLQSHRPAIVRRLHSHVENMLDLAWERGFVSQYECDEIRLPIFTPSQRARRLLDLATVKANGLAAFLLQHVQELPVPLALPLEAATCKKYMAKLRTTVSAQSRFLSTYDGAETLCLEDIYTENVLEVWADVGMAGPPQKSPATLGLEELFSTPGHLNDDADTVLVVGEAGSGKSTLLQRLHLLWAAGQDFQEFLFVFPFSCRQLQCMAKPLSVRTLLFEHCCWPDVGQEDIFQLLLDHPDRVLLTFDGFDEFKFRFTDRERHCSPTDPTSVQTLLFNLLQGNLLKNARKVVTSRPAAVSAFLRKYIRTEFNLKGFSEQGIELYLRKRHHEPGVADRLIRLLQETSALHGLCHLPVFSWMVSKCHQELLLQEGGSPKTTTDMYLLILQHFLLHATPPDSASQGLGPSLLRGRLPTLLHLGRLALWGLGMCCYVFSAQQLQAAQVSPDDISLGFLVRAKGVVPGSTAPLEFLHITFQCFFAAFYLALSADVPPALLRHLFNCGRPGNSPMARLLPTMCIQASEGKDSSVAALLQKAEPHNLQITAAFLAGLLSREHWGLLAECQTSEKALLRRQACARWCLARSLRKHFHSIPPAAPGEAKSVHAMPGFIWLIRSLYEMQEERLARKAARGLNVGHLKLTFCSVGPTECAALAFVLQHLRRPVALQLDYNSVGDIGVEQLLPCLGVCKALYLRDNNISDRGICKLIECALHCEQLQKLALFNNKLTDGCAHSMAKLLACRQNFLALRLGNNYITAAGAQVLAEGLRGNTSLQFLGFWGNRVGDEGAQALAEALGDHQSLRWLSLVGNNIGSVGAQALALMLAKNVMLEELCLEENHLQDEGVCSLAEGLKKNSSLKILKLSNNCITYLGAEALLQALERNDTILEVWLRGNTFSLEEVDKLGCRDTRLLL
T6 sequence (P01375 whole entry): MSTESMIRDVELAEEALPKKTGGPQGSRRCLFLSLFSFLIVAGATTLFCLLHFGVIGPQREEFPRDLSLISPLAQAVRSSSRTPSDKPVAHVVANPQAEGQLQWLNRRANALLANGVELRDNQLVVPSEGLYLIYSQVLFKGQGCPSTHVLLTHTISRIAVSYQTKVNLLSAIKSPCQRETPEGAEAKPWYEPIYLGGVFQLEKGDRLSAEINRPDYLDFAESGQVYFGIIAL
T2 sequence (Q932Y6 whole entry): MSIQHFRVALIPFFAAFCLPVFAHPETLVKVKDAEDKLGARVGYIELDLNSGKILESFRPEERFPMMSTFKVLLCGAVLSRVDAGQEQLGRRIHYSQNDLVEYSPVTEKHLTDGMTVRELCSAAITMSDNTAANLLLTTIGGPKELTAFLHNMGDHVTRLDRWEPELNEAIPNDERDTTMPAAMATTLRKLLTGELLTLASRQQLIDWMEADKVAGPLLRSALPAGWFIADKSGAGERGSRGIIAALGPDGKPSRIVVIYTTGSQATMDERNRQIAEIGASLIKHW
Chain of Transitional endoplasmic reticulum ATPase (Homo sapiens, UniProt P55072) (P55072 whole entry, the tested form may be a part): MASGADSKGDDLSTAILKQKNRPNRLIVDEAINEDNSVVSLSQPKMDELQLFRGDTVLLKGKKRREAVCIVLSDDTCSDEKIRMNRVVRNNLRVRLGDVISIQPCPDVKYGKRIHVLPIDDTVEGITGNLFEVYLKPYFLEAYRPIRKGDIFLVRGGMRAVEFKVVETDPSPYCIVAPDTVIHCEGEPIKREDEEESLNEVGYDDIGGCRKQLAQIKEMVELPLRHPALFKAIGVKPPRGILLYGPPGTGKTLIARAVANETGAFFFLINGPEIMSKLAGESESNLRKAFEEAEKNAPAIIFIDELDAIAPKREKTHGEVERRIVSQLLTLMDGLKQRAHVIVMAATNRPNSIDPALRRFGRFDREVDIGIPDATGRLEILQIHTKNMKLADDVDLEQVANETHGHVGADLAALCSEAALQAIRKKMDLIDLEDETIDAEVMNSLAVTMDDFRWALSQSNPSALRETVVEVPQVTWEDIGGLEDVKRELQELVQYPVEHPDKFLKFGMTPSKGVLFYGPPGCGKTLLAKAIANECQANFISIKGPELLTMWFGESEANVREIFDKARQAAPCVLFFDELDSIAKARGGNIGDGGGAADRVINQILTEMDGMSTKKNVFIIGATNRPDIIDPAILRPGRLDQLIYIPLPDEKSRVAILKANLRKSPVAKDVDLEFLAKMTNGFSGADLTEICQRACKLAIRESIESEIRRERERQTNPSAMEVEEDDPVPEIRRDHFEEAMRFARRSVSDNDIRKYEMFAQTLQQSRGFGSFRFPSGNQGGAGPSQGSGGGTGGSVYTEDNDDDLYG
Chain of Transitional endoplasmic reticulum ATPase (Homo sapiens, UniProt P55072, C522A) (P55072 2-806 C522A limits assumed): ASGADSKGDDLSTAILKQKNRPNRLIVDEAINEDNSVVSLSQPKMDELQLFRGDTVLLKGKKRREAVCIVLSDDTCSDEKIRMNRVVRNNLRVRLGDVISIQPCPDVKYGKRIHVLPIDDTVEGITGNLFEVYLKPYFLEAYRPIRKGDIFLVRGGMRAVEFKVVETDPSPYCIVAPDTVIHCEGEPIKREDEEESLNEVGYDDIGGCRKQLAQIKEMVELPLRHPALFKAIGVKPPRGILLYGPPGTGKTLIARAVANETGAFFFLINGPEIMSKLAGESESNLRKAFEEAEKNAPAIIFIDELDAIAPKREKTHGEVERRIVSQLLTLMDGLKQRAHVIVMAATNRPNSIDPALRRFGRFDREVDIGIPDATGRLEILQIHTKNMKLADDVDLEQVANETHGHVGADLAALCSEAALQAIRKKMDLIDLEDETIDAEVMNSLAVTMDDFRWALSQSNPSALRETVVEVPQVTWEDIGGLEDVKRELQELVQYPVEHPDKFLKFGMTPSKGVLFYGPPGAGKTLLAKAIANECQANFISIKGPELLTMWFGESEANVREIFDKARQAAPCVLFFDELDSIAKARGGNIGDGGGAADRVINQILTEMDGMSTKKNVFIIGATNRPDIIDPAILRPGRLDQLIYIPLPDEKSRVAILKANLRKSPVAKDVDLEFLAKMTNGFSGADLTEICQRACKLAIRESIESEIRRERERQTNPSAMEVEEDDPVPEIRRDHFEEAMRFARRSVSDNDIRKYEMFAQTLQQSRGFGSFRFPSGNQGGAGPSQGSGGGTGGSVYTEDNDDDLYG
Chain of Galanin receptor type 2 (O43603 whole entry): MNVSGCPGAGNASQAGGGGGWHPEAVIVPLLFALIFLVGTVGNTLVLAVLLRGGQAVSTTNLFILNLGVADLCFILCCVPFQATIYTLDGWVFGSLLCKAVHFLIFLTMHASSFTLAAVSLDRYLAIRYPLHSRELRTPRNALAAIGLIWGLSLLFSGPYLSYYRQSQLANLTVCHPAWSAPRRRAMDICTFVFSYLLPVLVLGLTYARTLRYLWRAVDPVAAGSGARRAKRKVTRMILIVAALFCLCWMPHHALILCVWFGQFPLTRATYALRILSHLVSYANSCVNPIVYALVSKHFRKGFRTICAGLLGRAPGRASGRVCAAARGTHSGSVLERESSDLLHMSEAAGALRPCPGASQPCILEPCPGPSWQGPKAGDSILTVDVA
Chain of DNA damage-inducible transcript 3 protein (P35639 whole entry): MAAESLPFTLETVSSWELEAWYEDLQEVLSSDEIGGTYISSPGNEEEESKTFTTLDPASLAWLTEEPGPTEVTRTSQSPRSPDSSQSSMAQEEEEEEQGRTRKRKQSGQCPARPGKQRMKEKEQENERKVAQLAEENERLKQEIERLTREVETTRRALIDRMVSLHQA

CS(=O)(=O)c1nc(-c2ccc(F)cc2)cc(C(F)(F)F)n1
Absolute IC50 (CHOP) [1]: 10 µM | AC50 [2]: 7.2 µM (active) | IC50 (CHO): 3.27 µM (active) | IC50 (Beta Lactamase [3]): 27.4 µM (inactive) | AC50 [4]: 2.72 µM (active) | AC50 [5]: 24.5 µM (active) | AC50 [6]: 7.39 µM (active) | IC50 [7]: 2.79 µM (active) | IC50 (Beta Lactamase [8]): 17.7 µM (inactive) | IC50 (Galanin receptor type 3): > 29.9 µM (inactive) | EC50 (cells): > 29.9 µM (inactive)

C1=C(CCNc2[nH]cnc3c4ccccc4nc2-3)CCCC1
IC50 (Galanin receptor type 2): > 42 µM (not active) | EC50 (Ion channel NompC): > 29.9 µM (inactive) | EC50 (Mucolipin-3): > 29.9 µM (not active) | AC50 (INS1): 219 nM (active) | IC50 (Galanin receptor type 3): 0.383 µM (active) | EC50 (cells): > 29.9 µM (inactive)

Cc1ccc(C)c(SCC(=O)OC/C(O)=C(\C#N)c2nc3ccccc3[nH]2)c1
EC50 (HEK293 [9]): > 20 µM (inactive) | IC50 (HEK293 [10]): > 20 µM (inactive) | IC50 [11]: > 50 µM (not active) | IC50 (HEK293 [12]): > 20 µM (inactive) | EC50 [13]: > 20 µM (inactive) | IC50 (HEK293 [14]): 4.92 µM (inactive) | IC50 (HEK293 [15]): > 20 µM (inactive) | IC50 [16]: > 50 µM (not active) | IC50 [17]: 4.21 µM (active) | IC50 (Tumor necrosis factor [18]): > 20 µM (inactive) | IC50 (HEK293 [19]): > 20 µM (inactive) | IC50 [20]: > 20 µM (inactive) | IC50 [21]: 4.55 µM (active) | IC50 (Tumor necrosis factor [22]): > 20 µM (inactive) | IC50 [23]: > 20 µM (inactive) | IC50 (HEK293 [24]): > 20 µM (inactive)
